Test results as given in patent US20150335055A1, “BEVERAGE PR[…] BASED ON PIMARICIN AND HEADSPACE GAS” (PEPSICO, INC., priority 2013, published 2015).

Tests used:
[1] = tested on: yeast which can spoil carbonated beverage; details: types of yeast which can spoil carbonated beverage; cited from earlier work
[2] = Pimaricin concentration over time in Example 1 samples by UV-Visible spectroscopy; format: physicochemical; details: pimaricin in the absence of cyclodextrin; initial 1.1 ppm; carbonated mock grape beverage, 25° C.
Source text: (§1) Such reactions are a consequence of the formation of reactive oxygen species (ROS) wherein oxygen merely serves as an intermediate in the transfer of electrons in REDOX type reactions which ultimately result in the degradation of more complex molecules such as pimaricin. In this regard, O2 behaves similar to a catalyst. Similar to many reactions involving catalyst, the amount of oxygen required to drive in such reactions is very small. In this regard, it is of interest to evaluate the stability of pimaricin in solution under differing conditions of oxygen tension. Clearly, it is also of interest to establish whether the formation of a complex between pimaricin and β-cyclodextrin serves to stabilize pimaricin from degradation by reaction with oxygen. […] Briefly, pimaricin yields a very distinctive UV-visible spectrum with 3 separate absorption maxima. As pimaricin degrades, the peak heights diminish. Degradation can be tracked through the diminishing peak height of any single peak maxima or through changes in relative peak height.
A 16 week trial was conducted with a mock grape 12 Brix 2% grape juice mock glass “pony” 9.8 oz. bottle. Beverages were carbonated to 3.7 and 4.5 volumes. Five containers of each CO2 level were not inoculated and served as negative controls. […]

[3] = Loss of pimaricin over time in water as a function of O2 content and complex with β-cyclodextrin (Background Example 3); format: physicochemical
Source text: as §1
Given a method to monitor the changes in concentration of pimaricin, it is then possible to establish whether pimaricin degrades differently as a function of variables such as initial oxygen tension of solution. Background Example 3, FIG. 3 captures results for the degradation of pimaricin over a time period of several months as a function of initial oxygen tension and the presence or absence of a complex between pimaricin and β (beta) cyclodextrin.
The initial concentration of pimaricin in complex ≧400 ppm and so pimaricin is fully bound to β-cyclodextrin. Measurements in distilled water at neutral pH and 25° C. Thus, regardless of the presence or absence of a complex with cyclodextrin, pimaricin is subject to degradation over time when in solution.

[4] = Degradation kinetics of pimaricin in beverage without β-cyclodextrin, UV-visible peak ratio (Background Example 2); format: physicochemical; details: beverage pH 3.4; no β-cyclodextrin
Source text: as §1
Freshly prepared samples of pimaricin in water yield a spectrogram of 3 peak 1 (320 nm) peak 2 (304 nm) and peak 3 (291 nm). […] These differences are a reflection of the conjugated diene structure of pimaricin. As the integrity of the conjugate structure gives way to degradation, the relative peak heights are subject to change. […]

[5] = Solubility of pimaricin in aqueous solution; format: physicochemical
spoilage organisms = assay: Degradation kinetic of pimaricin and onset of spoilage in carbonated beverage (Background Example 4); format: cell-based
Source text: In the absence of analytical data about the stability of pimaricin in solution, the interpretation of the data about the stability of product over time can be interpreted in one of two ways. Either no degradation of pimaricin occurred and product spoiled because of the outgrowth of those few organisms that were tolerant to the quantity of pimaricin present or spoilage occurred as a consequence of the survival and then outgrowth of organisms as a consequence of the degradation of pimaricin below some critical concentration. A strong argument for the latter is offered in Background Example 4, FIG. 4. Herein, the degradation of pimaricin is tracked from initial concentrations of 13 and 25 ppm in parallel with previously established incidence of spoilage in samples that initially contain 13 and 25 ppm. […] Product contains in excess of 2000 ppb O2.
In the presence of structurally intact pimaricin, spoilage organisms are inhibited from growth. Once the integrity of the bulk pimaricin is compromised, the organisms are able to grow. Regardless of initial concentration, pimaricin in 3.7 volume CO2 beverage will degrade at the same rate. Commonly, carbonated beverages contain a substantial amount of oxygen (>3500 ppb). Given a starting concentration of 13.5 ppm, the degradation of pimaricin is such that the concentration of pimaricin falls to below the minimum inhibitory concentration ( . . . ) at around 80 days. At this time, spoilage organisms begin to grow and induce spoilage (χ).

(IR,3S,5R,7R,8E,12R,14E,16E,18E,20E,22R,24S,25R,26S)-{[3S,4S,5S,6R)-4-amino-3,5-dihydroxy-6-methyloxan-2-yl]oxy}-1,3,26 trihydroxy-12-methyl-10-oxo-6,11,28-trioxatricyclo[22.3.1.0^5,7]octacosa-8,14,16,18,20 pentaene-25-carboxylic acid [pimaricin]
reported MIC values [1]: ≥ 10 ppm
half-life of degradation [2]: about 35 days
effect of lowering oxygen concentration on rate of degradation ([3]; not complexed, oxygen lowered to 3500 ppb): does not measurably impact the rate of degradation
degradation over time ([3]; not complexed, water containing oxygen in excess of 8500 ppb): degrades quite quickly
rate of degradation versus water containing 8300 ppm O2 ([3]; pimaricin alone in water containing only, neutral pH, 25° C.): about the same rate
rate of degradation versus pimaricin complex β-cyclodextrin ([3]; water containing 8300 ppb O2, distilled water, neutral pH, 25° C.): slightly faster rate
degradation in aqueous suspension [4]: degrades relatively quickly
normal limit of solubility ([5]; beverage of acid pH, 25° C.): 20-25 ppm
limit of solubility ([5]; high acid beverage): 25 ppm
limit of solubility in aqueous solution ([5]; in the absence of β-cyclodextrin): 20-25 mg 1^−1
critical concentration of pimaricin (no spoilage above it) (spoilage organisms; 3.7 volume CO2 beverage): about 2 ppm
incubation time before spoilage (spoilage organisms; initial concentration 13 ppm pimaricin, carbonated beverage 3.6 volumes CO2): > 80 days
incidence of spoilage (spoilage organisms; initial concentration 13 ppm pimaricin, carbonated beverage 3.6 volumes CO2, in excess of 2000 ppb O2): 33%
pimaricin concentration below which spoilage ensues (spoilage organisms; intersect of time of onset of spoilage and degradation plot for 13 ppm pimaricin): 1.5-2 ppm
spoilage among samples evaluated (spoilage organisms; product containing 25 ppm pimaricin, carbonated beverage 3.6 volumes CO2): did not suffer any spoilage
time at which pimaricin concentration falls below the minimum inhibitory concentration (spoilage organisms; starting concentration 13.5 ppm, 3.7 volume CO2 beverage): around 80 days
spoilage from outgrowth of previously inoculated organisms (spoilage organisms; starting concentration 25 ppm pimaricin, 3.7 volume CO2 beverage): no ensuing spoilage
